Assay [1] has as its target T1, hNOP receptor (Homo sapiens, UniProt P41146). Type of assay: cell-based.
In assay [2] the target is T2, NOP receptor (Mus musculus, UniProt P35377). Type of assay: cell-based.
The target of assay [3] is T2, NOP receptor. As to the kind of experiment: In vivo NOP receptor phosphorylation in brain of NOP-eGFP knock-in mice. The following applies: SB 612111 30 mg/kg pretreatment 30 min, then AT-202 30 mg/kg.
Assay [4] addresses T1, hNOP receptor. Type of assay: cell-based. The source holds these as a separate data set.
For assay [5], the system named is NOP receptor. The following applies: cited from earlier work.

T1 sequence (P41146 whole entry): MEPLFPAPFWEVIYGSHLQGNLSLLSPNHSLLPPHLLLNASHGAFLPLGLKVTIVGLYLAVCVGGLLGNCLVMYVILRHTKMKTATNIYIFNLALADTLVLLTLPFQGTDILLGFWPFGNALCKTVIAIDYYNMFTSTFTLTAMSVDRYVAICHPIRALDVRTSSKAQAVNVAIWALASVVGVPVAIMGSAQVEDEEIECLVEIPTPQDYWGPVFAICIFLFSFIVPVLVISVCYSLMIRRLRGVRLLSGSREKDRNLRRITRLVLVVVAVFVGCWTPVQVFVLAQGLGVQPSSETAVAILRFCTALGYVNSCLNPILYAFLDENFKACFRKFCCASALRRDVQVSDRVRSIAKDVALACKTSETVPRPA
T2 sequence (P35377 whole entry): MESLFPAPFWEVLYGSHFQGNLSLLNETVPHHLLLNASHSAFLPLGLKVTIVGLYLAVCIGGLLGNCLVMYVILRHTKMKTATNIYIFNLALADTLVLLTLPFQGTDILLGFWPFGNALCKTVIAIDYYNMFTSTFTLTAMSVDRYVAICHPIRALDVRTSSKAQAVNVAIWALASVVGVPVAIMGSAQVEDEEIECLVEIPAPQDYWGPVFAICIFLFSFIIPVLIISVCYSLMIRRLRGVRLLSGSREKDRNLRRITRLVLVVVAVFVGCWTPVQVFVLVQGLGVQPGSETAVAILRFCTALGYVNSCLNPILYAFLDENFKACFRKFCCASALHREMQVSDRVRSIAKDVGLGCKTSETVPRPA

As for `C=C[C@@]1(C)CC(=O)[C@]2(O)[C@@]3(C)[C@@H](O)CCC(C)(C)[C@@H]3[C@H](O)[C@H](OC(C)=O)[C@@]2(C)O1` [Forskolin, forskolin], the “NOP receptor phosphorylation by second messenger kinase activators” value on hNOP receptor [1] is given as “did not produce any detectable phosphorylation”. Regarding `CC1(N2CCC(n3c([C@@H]4CCCNC4)nc4ccccc43)CC2)CCCCCCC1` [MCOPPB], the “NOP receptor internalization in ventral midbrain neurons” value at NOP receptor [2] is “strong MCOPPB-induced NOP receptor internalization”. Take `Cc1cccc2c1CC[C@H](CN1CCC(c3c(Cl)cccc3Cl)CC1)C[C@@H]2O` [SB 612111, (−)-cis-1-methyl-7-[[4-(2,6-dichlorophenyl)piperidin-1-yl]methyl]-6,7,8,9-tetrahy dro-5H-benzocyclohepten-5-ol]: the “Block of AT-202-induced NOP receptor phosphorylation in mouse brain” value at NOP receptor [3] was “could be blocked”. Besides, the “Inhibition of N/OFQ-induced NOP receptor phosphorylation” value on hNOP receptor [1] is on record as “completely blocked N/OFQ-induced phosphorylation”.

On to `CN1CCc2cc(Cl)c(O)cc2[C@@H](c2ccccc2)C1` [SCH23390], for which the “Effect on N/OFQ-induced hyperpolarization” value at hNOP receptor [4] is given as “reversed the N/OFQ-evoked hyperpolarization”. On to buprenorphine, for which the “Agonist-induced NOP receptor phosphorylation at Ser346, Ser351 and Thr362/Ser363” value at hNOP receptor [1] is given as “complete lack of NOP receptor phosphorylation”. The “Agonist activity in G protein signaling / GIRK channel activation” value on hNOP receptor [4] is “partial agonistic activity with a remarkably reduced maximal effect compared with N/OFQ”. Besides, the “Agonist efficacy at the NOP receptor in cAMP inhibition assays” value with NOP receptor [5] is “partial agonists”.

The values above are taken from paper PMC6934085 (Science signaling, 2019).
